Measurements: US6352852B1, “Method for the purification of human platelet heparanase” (The Australian National University, priority 1996, dated 2002)

Columns and labels:
[1] = biological target: T1, Human platelet homogenate heparanase activity (Homo sapiens, UniProt Q9Y251); experiment: Substrate degradation by human platelet homogenate heparanase activity; format: biochemical
T1 construct: assessed using the highly invasive rat mammary adenocarcinoma 13762 MAT and human platelet homogenates; from tissue; host or cells: human platelets (Triton X-100 freeze/thaw homogenate)
T1 sequence (Q9Y251 36-543): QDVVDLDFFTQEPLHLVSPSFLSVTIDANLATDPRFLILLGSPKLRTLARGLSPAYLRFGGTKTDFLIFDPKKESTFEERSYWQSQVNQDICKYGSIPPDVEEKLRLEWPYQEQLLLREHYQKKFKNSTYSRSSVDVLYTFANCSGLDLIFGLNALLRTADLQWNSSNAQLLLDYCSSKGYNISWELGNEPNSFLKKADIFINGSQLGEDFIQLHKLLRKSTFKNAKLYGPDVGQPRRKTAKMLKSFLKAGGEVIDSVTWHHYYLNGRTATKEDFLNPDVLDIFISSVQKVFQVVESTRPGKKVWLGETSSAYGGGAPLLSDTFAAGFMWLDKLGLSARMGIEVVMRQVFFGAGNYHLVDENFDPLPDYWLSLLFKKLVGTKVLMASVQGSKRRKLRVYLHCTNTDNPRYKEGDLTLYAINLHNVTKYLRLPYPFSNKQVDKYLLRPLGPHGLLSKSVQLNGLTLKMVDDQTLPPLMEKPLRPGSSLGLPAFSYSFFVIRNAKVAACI
Description: (§1) To assay for heparanase activity, up to 2 μl of sample was added to an incubation mixture consisting of 90 pmol of radiolabelled HS in 0.05M-sodium acetate buffer, pH 5.1, containing 5 mM-N-acetylmannosamine and 0.1 mg/ml BSA in a total volume of 20 μl and incubated at 37° C. for the appropriate time. The reaction was stopped by freezing the tubes, 0.3 ml cold PBS added, the solution centrifuged if necessary at 4° C. and 0.1 ml of the sample applied to a cHRG-Sepharose mini-column pre-equilibrated in PBS. The columns were washed with 0.7 ml PBS, the washings and flow through material transferred to a scintillation vial, 10 ml of scintillation fluid added, and the radioactivity determined. Enzyme activity was expressed as pmol product formed per hour per mg protein or 10^6 cells or ml of serum. The cHRG-Sepharose columns were regenerated by the addition of 1 ml of 0.05M-Tris-HCl buffer, pH 7.5, containing 2M-NaCl and then equilibrated with PBS.
Heparanase activity was also detected by gel filtration chromatography of the incubation mixture on a Superose 6 HR 10/30 column (Pharmacia LKB Biotechnology, Uppsala, Sweden), equilibrated in and subsequently developed in PBS. The Pharmacia FPLC system was run at a flow rate of 0.25 ml/min with 0.5 ml fractions collected directly into scintillation vials, to which 3 ml of scintillation fluid was added, and the radioactivity determined. […]

[2] = biological target: T2, 13762 MAT cell heparanase (Rattus norvegicus, UniProt Q71RP1); experiment: Gel filtration analysis of substrate degradation by rat 13762 MAT cell homogenate; format: biochemical; settings: for heparanase activity towards the substrate: incubation for 16 h at pH 5.1, 6.5 or 7.5; for apparent Mr of degradation fragments: with NAM
T2 construct: A time course incubation of 13762 MAT cell homogenates with HS at pH 5.1; endogenous in cells; host or cells: rat mammary adenocarcinoma 13762 MAT cells (Triton X-100 freeze/thaw homogenate)
T2 sequence (Q71RP1 29-536): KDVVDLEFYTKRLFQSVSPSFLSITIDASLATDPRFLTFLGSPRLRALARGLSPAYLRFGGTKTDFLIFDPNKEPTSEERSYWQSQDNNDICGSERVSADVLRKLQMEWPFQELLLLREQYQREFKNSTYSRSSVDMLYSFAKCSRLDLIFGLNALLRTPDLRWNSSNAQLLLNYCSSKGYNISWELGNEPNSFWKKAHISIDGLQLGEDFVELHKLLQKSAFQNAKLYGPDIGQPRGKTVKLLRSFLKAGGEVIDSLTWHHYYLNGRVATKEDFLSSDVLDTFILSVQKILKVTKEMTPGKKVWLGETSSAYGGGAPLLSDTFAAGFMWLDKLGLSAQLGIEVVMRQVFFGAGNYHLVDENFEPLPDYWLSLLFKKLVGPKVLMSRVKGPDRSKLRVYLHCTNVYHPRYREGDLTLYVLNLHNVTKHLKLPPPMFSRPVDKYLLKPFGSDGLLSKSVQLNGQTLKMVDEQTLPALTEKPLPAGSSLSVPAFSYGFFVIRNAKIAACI
Description: as §1, with “[…],” for “incubation mixture consisting of 90 pmol of radiolabelled HS in 0.05M-sodium acetate buffer, pH 5.1,”
Heparanase activity was also detected by gel filtration chromatography of the incubation mixture on a Superose 6 HR 10/30 column (Pharmacia LKB Biotechnology, Uppsala, Sweden), equilibrated in and subsequently developed in PBS. The Pharmacia FPLC system was run at a flow rate of 0.25 ml/min with 0.5 ml fractions collected directly into scintillation vials, to which 3 ml of scintillation fluid was added, and the radioactivity determined. The column was calibrated with ^3H-N-acetylglucosamine (221 Da), bovine lung heparin (12.5 kDa) and heparin-derived Mr ave. standards (16.7, 10.6, 6.7 and 3.1 kDa) which had been partially de-N-acetylated and re-N-acetylated with ^3H-acetic anhydride as described above for the preparation of radiolabelled HS. Radiolabelled chondroitin-6-sulphate and carboxyl-reduced HS (prepared by the method of Karamanos et al, (1988)) were also prepared by the above method.

[3] = Storage stability; format: physicochemical; settings: stored at −20° C. in 10% (v:v) aqueous ethanol, repeated freezing and thawing
[4] = test system: cHRG-Sepharose; experiment: Binding of HS to cHRG-Sepharose, NaCl gradient elution; design: species or system chicken; settings: salt gradient at pH 7.2
Description: Binding of HS to cHRG-Sepharose; Samples in 200 μl of PBS were applied to a mini-column (0.5×4.0 cm) of cHRG-Sepharose equilibrated in PBS at 4° C. The column was washed with 2 ml of PBS and eluted with a linear gradient (2×10 mls) of PBS and 10 mM-sodium phosphate buffer, pH7.2, containing 1.2M-NaCl developed at 0.5 ml/min with 0.5 ml fractions collected directly into scintillation vials, to which 4 ml of scintillation fluid was added and the radioactivity determined. The columns were re-equilibrated in PBS for further use.

[5] = biological target: T3, human platelet heparanase (Homo sapiens, UniProt Q9Y251); experiment: Heparanase assay 2: gel filtration analysis of HS or heparin degradation by purified human platelet heparanase; format: biochemical; settings: 16 h at 37° C.
T3 construct: human platelet heparanase has been purified to homogeneity from previously frozen, washed platelets; from tissue; host or cells: human platelets (frozen, washed; five-column purification)
T3 sequence (Q9Y251 158-543 limits assumed): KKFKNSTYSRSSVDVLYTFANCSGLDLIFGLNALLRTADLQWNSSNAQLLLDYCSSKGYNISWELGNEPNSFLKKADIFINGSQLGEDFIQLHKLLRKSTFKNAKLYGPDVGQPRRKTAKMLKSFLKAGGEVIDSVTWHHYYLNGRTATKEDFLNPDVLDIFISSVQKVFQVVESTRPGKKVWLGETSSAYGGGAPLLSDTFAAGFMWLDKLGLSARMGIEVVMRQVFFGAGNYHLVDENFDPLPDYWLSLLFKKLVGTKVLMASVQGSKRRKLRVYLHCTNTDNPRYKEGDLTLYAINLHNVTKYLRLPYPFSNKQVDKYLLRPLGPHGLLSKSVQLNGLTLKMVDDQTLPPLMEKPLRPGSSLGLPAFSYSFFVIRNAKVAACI
T3 sequence (Q9Y251 36-109 limits assumed): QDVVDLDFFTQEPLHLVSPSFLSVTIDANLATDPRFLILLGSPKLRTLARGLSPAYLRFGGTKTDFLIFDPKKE
Description: Heparanase activity towards 2 μg of the radiolabelled HS or heparin analogues was assayed as described above for 16 h at 37° C., and detected by gel filtration analysis of the incubation mixture on either Superose 6 (for HS degradation) or Superose 12 (for heparin degradation). The chromatography columns were both equilibrated in and developed with PBS at a flow rate of 0.25 ml/min with 0.5 ml fractions being collected directly into scintillation vials, to which 3 ml of scintillation fluid was added, and the radioactivity determined. The columns were calibrated with ^3H-N-acetylglucosamine (221 Da), bovine lung heparin (12.5 kDa) and heparin-derived Mrave. standards (16.7, 10.6, 6.7 and 3.1 kDa) which had been partially de-N-acetylated and re-N-acetylated with ^3H-acetic anhydride as described above for the preparation of radiolabelled HS.

heparanase activity towards the substrate [1] | heparanase activity towards the substrate [2] | storage stability [3] | NaCl concentration eluting from cHRG-Sepharose [4] | size of fragments after cleavage [5] | size of digestion fragments [1] | apparent Mr of degradation fragments ([2]; pH 5.1, 16 h at 37° C.) | apparent Mr of degradation fragments ([2]; pH 6.5, 16 h at 37° C.) | apparent Mr of degradation fragments ([2]; pH 7.5, 16 h at 37° C.) | Substance
did not act | No activity was detected |  |  |  |  |  |  |  | carboxyl-reduced heparan sulphate [CR-HS]
 | No activity was detected |  |  |  |  |  |  |  | chondroitin-6-sulphate [chrondroitin-6-sulphate]
 |  | stable for over a year | 0.27 M-NaCl | 5 kDa | 5 kDa | 5 kDa | 8 kDa | 16 kDa | heparan sulphate [HS]
